Laboratory results taken from patent US9547009B2, “Benzocyclooctyne compounds and uses thereof” (Academia Sinica, priority 2012, dated 2017).

Tests used:
[1] = Photophysical properties of Compound 1 and its benzyl azide triazole regioisomers 3a/3b; type: physicochemical; conditions: for fluorescence emission λmax: upon irradiation; for extinction coefficient relative to Compound 1: at λmax 330 nm
Source text: In one embodiment, Compound 1 reacted with benzyl azide in ethanol/water (1:1) in the absence of copper(I) catalyst to afford the cycloaddition product as a mixture of two triazole reigoisomers 3a and 3b. These two trizaole isomers were separated, and their photophysical properties were investigated, respectively. […] The quantum yields of triazole compounds 3a (Φf=0.23) and 3b (Φf=0.22) were 20-fold higher than Compound 1 (Φf=0.011).

[2] = Absorption/fluorescence spectroscopy and quantum yield under simulated physiological conditions (10% DMSO in PBS); type: physicochemical; conditions: excitation at 330 nm, PBS buffer containing 10% DMSO, pH 7.4, 37° C.; for quantum yield Φf: quinine sulfate standard
Protocol: All spectroscopic measurements of Compound 1 and the triazole products 1-A and 1-B were performed in a mixture of 10% DMSO in PBS buffer (FIG. 11). UV-vis spectra and fluorescence spectra were recorded on a Molecular Devices Spectramax M5 spectrometer. For each experiment, the absorbance spectra were measured within an absorbance range of 0.07 to 0.7 (l=[…]). Quantum yields were determined from the slope of the integrated fluorescence emission between 360 and 550 nm (excitation at 330 nm) versus absorbance using quinine sulfate (Φf=0.54±0.0 3)[^S3] as fluorescence standard. The quantum yield was calculated as an average of 4 points according to the following equation: Φsample=Φstandard(Astandard/Asample)(Fsample/Fstandard)(nsample/nstandard)^2 where “Φ” is the quantum yield, “A” is the absorbance at the excitation frequency, “F” is the area under the emission curve, and “n” is the refractive index of the solvent.
Formation of triazoles 1-A and 1-B were accompanied by a significant increase in fluorescence intensity with a large Stokes shift into a standard range for coumarin emission (FIG. 8a).

[3] = SPAAC kinetics with benzyl azide monitored by 1H-NMR; conditions: CD3CN, 25° C.
Protocol: The cycloaddition of compound 1 with benzyl azide was a second-order reaction. […] The second-order rate constant (k) was determined to be 0.015 M^−1s^−1 at 25° C. […] (Agard, et al., J. Am. Chem. Soc. 2004, 126, 15046; Ning, et al., Angew. Chem. Int. Ed. 2008, 47, 2253).
(§1) Experiment I: Compound 1 and benzyl azide were predissolved in CD3CN, and then mixed at equimolar concentration of 20 mM. The reaction was monitored by ^1H-NMR analysis over a period of 1 h. The concentration of each component was determined, based on the concentration of initial compound 1, by integration at multiple chemical shifts in the ^1H-NMR spectrum. By plotting 1/[1](M^−1) vs. time (sec), a second order rate constant in unit of M^−1s^−1 was determined using linear regression analysis. This procedure was repeated 3 times with a concentrated of 20 mM to afford a rate constant of 0.012 M^−1s^−1 at 25° C. (FIG. 4B).

[4] = SPAAC kinetics with N-azidoacetylmannosamine monitored by 1H-NMR; conditions: CD3OD/D2O (5:1, v/v), equimolar 20 mM, 25° C.
Protocol: as §1, with “II:” for “I:”, “N-azidoacetylmannosamine” for “benzyl azide”, “CD3OD/D2O (5:1, v/v),” for “CD3CN,”, “0.010” for “0.012”, “11).” for “4B).”

[5] = Time course of ligation with ManNAz by fluorescence spectroscopy; conditions: emission 435 nm, excitation 330 nm; 10% DMSO in PBS, 37° C.
Protocol: To probe the SPAAC reaction under the conditions that would be more typical for biomolecule labeling, the fluorescence response and time course for the reaction of Compound 1 with N-azidoacetylmannosamine (ManNAz) were investigated.
A solution of Compound 1 ([…]) and N-azidoacetylmannosamine (15 μmol) in a mixture of 10% DMSO in PBS buffer (2.5 mL) was incubated at 37° C. The fluorescence emission intensity at 435 nm upon excitation at 330 nm was monitored in 5 min intervals. For each point the fluorescence intensity was measured over a period of 5 sec and averaged over a total of 3 points. In a control experiment the same conditions were used except that N-acetylmannosamine (15 μmol) was added to the solution.

CL1-5 cells = assay: Fluorescence labeling of azido-glycoconjugates in live cells (time-lapse and confocal microscopy); type: cell-based
Protocol: To observe the fluorescence labeled azido-glycoconjugates in cells, CL1-5 cells (a lung cancer cell line) were seeded on chamber slide (2.5×10^4 cells/0.5 mL per wells) and incubated in culture medium (RPMI-1640 supplemented with 10% FBS, 100 U/mL penicillin, 100 μg/mL streptomycin, 1 mM L-glutamine and 1 mM sodium pyruvate) with either 200 μM control sugar (peracetylated N-acetylmannosamine, Ac4ManNAc) or azido-sugar (peracetylated azido-N-acetylmannosamine, Ac4ManNAz) for 3 days.
For Time-lapse imaging of live cells, experiments were carried out using a confocal microscope (TCS-SP5-MP-SMD, Leica) equipped with an incubator to keep the cells in culture conditions. Prewashed cells were incubated with 100 μM compound 1 in PBS buffer with 10% DMSO and images of cell were acquired at 450 nm emission and in 5-min intervals.
For comparing the localization of azido-glycans, probe-labeled cells were washed with PBS, fixed with 3% paraformaldehyde in PBS at room temperature for 20 min, permeablized with 0.2% Triton X-100 in PBS at room temperature for 20 min, and blocked with 3% bovine serum albumin in PBS at room temperature for 30 min. Cells were stained with fluorescein conjugated WGA lectin for Golgi, and propidium iodide (PI) for nucleus (FIG. 12).
Performance of Compound 1 in live cell imaging was investigated. Highly invasive lung cancer cells, CL1-5, were cultured in the presence of peracetylated azido-N-acetylmannosamine (Ac4ManNAz, 200 μM) for 3 days to metabolically produce the azido-sialic acid expressed cells. As a negative control, CL1-5 cells were grown in the presence of peracetylated N-acetylmannosamine (Ac4ManNAc, 200 μM). A time course experiment was conducted by treating 100 μM of Compound 1 (once) and conducted by exposing the cells at 5-min intervals under no-wash and no-fixation conditions (FIG. 8 and FIG. 12). […] Furthermore, the localization of azido-containing glycoconjugates in living cells was visualized by confocal microscopy. The cells labeled by Compound 1 were subsequently stained with fluorescein-conjugated WGA lectin (a Golgi marker) and propidium iodide (PI, a nucleus marker).

[6] = Photophysical properties of alkynyl coumarin-indolium compound C and its CuAAC triazole product 18; type: physicochemical; conditions: 18: in aqueous solution; for extinction coefficient ε: at λmax 500 nm

## O=c1ccc2cc3c(cc2o1)C#CCCCC3 [Compound 1, 10,11-Dehydro-6,7,8,9-tetrahydro-cycloocta[g]chromen-2-one]
[1]
  absorption band λmax: 330 nm
  quantum yield Φf: 0.011
  fluorescence emission λmax: 400 nm
[2]
  fluorescence emission band: 405 nm
  quantum yield Φf: 0.011
[3]; benzyl azide, equimolar 20 mM, repeated 3 times
  second order rate constant: 0.012 M⁻¹ s⁻¹
[3]; cycloaddition with benzyl azide, 19 mM
  second-order rate constant (k): 0.015 M⁻¹ s⁻¹
[4]
  second order rate constant: 0.010 M⁻¹ s⁻¹
[5]
  time until fluorescence intensity reached a plateau: less than 1 h
CL1-5 cells; 100 μM probe, 5-min intervals, no-wash, no-fixation
  fluorescence of Ac4ManNAz treated cells: time-dependent increase of fluorescence intensity
CL1-5 cells; 100 μM probe, CL1-5 cells grown with 200 μM Ac4ManNAc
  fluorescence of control cells (background labeling): almost no fluorescence staining
CL1-5 cells; 100 μM probe, CL1-5 cells pre-treated with 200 μM Ac4ManNAz for 3 days, no-wash, no-fixation
  time until cell labeling complete: 1.5 h
CL1-5 cells; confocal microscopy, co-staining with fluorescein-WGA lectin (Golgi) and propidium iodide (nucleus)
  localization of probe-labeled sialylated glycans: partially co-localized with Golgi apparatus staining, but not with nucleus staining

## O=c1ccc2cc3c(cc2o1)-c1nnn(Cc2ccccc2)c1CCCC3 [Compound 1-A, 10-Benzyl-6,7,8,9-tetrahydro-cyclooctatriazolo[5,4-g]chromen-2 (2H)-one]
[2]
  fluorescence emission band: 435 nm
  quantum yield Φf: 0.23

## O=C(Cn1nnc2c1CCCCc1cc3ccc(=O)oc3cc1-2)NC1C(O)OC(CO)[C@@H](O)C1O (stereo partly drawn) [Compound 1-B, N-[2-(11-Oxo-4,6,7,11-tetrahydrochromeno[7′,6′:3,4]cycloocta[1,2-d][1,2,3]triazol-3 (5H)-yl)]acetamido-2-deoxy-α,β-D-mannopyranose]
[2]
  fluorescence emission band: 435 nm
  quantum yield Φf: 0.21

## O=c1ccc2cc3c(cc2o1)-c1nnn(Cc2ccccc2)c1CCCC3 [Compound 3a]
[1]
  absorption band λmax: 330 nm
  quantum yield relative to Compound 1: 20 fold
  quantum yield Φf: 0.23
  extinction coefficient relative to Compound 1: ~2.5 fold
  fluorescence emission λmax: 400 nm

## O=c1ccc2cc3c(cc2o1)-c1c(nnn1Cc1ccccc1)CCCC3 [Compound 3b]
[1]
  absorption band λmax: 330 nm
  quantum yield relative to Compound 1: 20 fold
  quantum yield Φf: 0.22
  extinction coefficient relative to Compound 1: ~2.5 fold
  fluorescence emission λmax: 400 nm

## CC1(C)C(/C=C/c2cc3ccc(-c4cn(Cc5ccccc5)nn4)cc3oc2=O)=[N+](CCCCS(=O)(=O)[O-])c2ccccc21 [Compound 18]
[6]
  absorption λmax: 500 nm
  fluorescence quantum yield Φf: 0.56
  fluorescence λmax: 520 nm
  extinction coefficient ε: 32,000 M^−1 cm^−1

## C#Cc1ccc2cc(/C=C/C3=[N+](CCCCS(=O)(=O)[O-])c4ccccc4C3(C)C)c(=O)oc2c1 [Compound C, (E)-7-ethynyl-3-[N-(4-sulfonatobutyl)-3,3-dimethyl-3H-indolium-2-yl]ethenyl-2H-chromen-2-one]
[6]
  absorption λmax: 500 nm
  fluorescence quantum yield Φf: 0.017
  fluorescence λmax: 515 nm
  extinction coefficient ε: 8,600 M^−1 cm^−1
